Source: patent publication US7094593B1, “Method for improving the function of heterologous G protein-coupled receptors” (priority 1998, dated 2006)

Tests used:
[1] = target: IC3Δ human alpha2A adrenergic receptor (Homo sapiens, UniProt P08913, DEL273-347)
Description: (§2) Yeast cells containing the wild type IC3Δ human alpha2A adrenergic receptor were assayed in liquid culture using the alpha adrenergic receptor full agonist UK14304 (RBI) and partial agonist clonidine.

[2] = target: wild type human alpha2A adrenergic receptor (Homo sapiens, UniProt P08913); settings: yeast cells containing wild type receptor, 18 hours
Description: as §2

[3] = target: T1, wild type D. melanogaster MAR (DMAR) (Drosophila melanogaster, UniProt P16395); test: Liquid culture yeast growth assay, wild type DMAR; format: cell-based; settings: yeast cells containing wild type DMAR
T1 construct: expressed in transfected cells; host or cells: Saccharomyces cerevisiae MPY578fc, plasmid pMP3
T1 sequence (P16395 1-805): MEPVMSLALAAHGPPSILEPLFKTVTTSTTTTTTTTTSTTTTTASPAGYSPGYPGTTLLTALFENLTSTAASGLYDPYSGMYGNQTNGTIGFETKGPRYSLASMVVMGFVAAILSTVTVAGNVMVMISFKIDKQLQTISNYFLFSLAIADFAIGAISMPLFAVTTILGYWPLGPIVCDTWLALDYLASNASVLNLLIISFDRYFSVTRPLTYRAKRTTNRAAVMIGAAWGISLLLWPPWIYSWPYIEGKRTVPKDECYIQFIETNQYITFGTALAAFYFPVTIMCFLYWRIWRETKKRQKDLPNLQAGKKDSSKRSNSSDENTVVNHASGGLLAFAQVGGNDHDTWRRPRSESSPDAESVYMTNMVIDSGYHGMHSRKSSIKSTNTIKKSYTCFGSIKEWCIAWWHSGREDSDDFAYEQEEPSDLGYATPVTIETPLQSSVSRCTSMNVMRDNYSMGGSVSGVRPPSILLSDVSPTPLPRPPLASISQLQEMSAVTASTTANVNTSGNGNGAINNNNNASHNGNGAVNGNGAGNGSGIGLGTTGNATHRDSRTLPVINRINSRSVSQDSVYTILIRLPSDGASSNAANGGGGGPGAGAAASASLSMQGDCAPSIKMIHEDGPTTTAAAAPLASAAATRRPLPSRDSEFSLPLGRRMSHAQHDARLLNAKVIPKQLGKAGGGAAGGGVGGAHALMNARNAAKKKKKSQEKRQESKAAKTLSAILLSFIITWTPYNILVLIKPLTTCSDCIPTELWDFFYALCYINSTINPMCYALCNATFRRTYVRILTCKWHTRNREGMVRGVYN
Description: (§1) In order to construct the IC3 replacement, PCR fragments encoding three domains were prepared by standard means. Fragment 1 consisted of the amino terminal coding portion of the Drosophila MAR up to an Agel site within the 5th TMD, amplified by PCR using oligonucleotides (AAA AGATCT AAA ATG […]) (SEQ ID NO: 7) and (CCA GTA GAG GAA […] AGGCCT AAGTAGAAGGCGGCCAGTGC) (SEQ ID NO: 8). The second fragment of the DMAR was composed of carboxy terminal coding sequences starting with a PmII site in the 6th TMD, amplified by PCR using oligonucleotides ([…]) (SEQ ID NO: 9) and (AAA CTCGAG […]) (SEQ ID NO: 10). The M3 MAR IC3Δ domain was amplified as an Agel-PmII fragment with coding sequence in frame with fragments 1 and 2, described in Example 1. These fragments were assembled in plasmid p426GPD to place the mutated DMAR under control of the GPD promoter. The wild type DMAR was cloned into the expression vector, pMP3, described in U.S. Pat. No. 5,691,188.

DMAR-M3 MAR IC3Δ = target: T2, DMAR-M3 MAR IC3Δ (Drosophila melanogaster, UniProt P16395, C285T/D301E/F279L/F286I/K296E/N304G/P303A/Q299T/R293K/W292Y); test: Liquid culture yeast growth assay, mutated DMAR containing the M3 MAR IC3Δ; format: cell-based, D. melanogaster; settings: yeast cells containing mutated DMAR with M3 MAR IC3Δ
T2 construct: expressed in transfected cells; host or cells: Saccharomyces cerevisiae MPY578fc, plasmid p426GPD
T2 sequence (P16395 other isoform, or with tags, fused parts or gaps F279L/C285T/F286I/W292Y/R293K/K296E/Q299T/D301E/P303A/N304G): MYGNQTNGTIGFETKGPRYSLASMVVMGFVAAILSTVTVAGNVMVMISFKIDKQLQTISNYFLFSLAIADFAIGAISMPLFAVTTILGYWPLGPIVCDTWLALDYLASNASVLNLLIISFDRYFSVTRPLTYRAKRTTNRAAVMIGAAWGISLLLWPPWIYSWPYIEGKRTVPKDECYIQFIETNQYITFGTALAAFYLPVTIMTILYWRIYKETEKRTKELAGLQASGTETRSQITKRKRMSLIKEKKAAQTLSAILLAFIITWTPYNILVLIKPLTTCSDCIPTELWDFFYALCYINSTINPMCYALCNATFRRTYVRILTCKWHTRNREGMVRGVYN
Description: as §1

Ce 5HTR-M3 MAR IC3Δ = test: Liquid culture yeast growth assay, Ce 5HTR containing the M3 MAR IC3Δ; format: cell-based, C. elegans; settings: for antagonist effect on growth inducing effect of serotonin: antagonist at 10 μM
Description: In order to construct the IC3 replacement, PCR fragments encoding three domains were prepared by standard means. Fragment 1 contains the amino terminal-coding portion of the Ce 5HTR to the intracellular interface of the 5th TMD, amplified by PCR using oligonucleotides ([…]) (SEQ ID NO: 27) and ([…] […] […]) (SEQ ID NO: 28). The second fragment of the Ce 5HTR contains carboxy-terminal coding sequences starting proximal to the intracellular interface of the 6th TMD, amplified by PCR using oligonucleotides ([…]) (SEQ ID NO: 29) and ([…] […] […]) (SEQ ID NO: 30). The M3 MAR IC3Δ domain was amplified by PCR as described in Example 1.
These fragments were isolated, mixed and amplified by PCR with 5′ ([…]) (SEQ ID NO: 27) and 3′ ([…]) ([…]) oligonucleotides. The resulting fragment was digested with appropriate restriction endonucleases and assembled in p426GPD to place the mutated Ce 5HTR under control of the GPD promoter.
Yeast cells containing the Ce 5HTR were assayed in liquid culture. […] In similar reactions, the serotonergic antagonists lisuride and mianserin were added to each well at 10 μM. […] Ki values were determined using the equation of Cheng and Pruesoff. (Y Cheng et al. (1973)).

Sequence of IC3Δ human alpha2A adrenergic receptor (P08913 with tags, fused parts or gaps DEL273-347 limits assumed): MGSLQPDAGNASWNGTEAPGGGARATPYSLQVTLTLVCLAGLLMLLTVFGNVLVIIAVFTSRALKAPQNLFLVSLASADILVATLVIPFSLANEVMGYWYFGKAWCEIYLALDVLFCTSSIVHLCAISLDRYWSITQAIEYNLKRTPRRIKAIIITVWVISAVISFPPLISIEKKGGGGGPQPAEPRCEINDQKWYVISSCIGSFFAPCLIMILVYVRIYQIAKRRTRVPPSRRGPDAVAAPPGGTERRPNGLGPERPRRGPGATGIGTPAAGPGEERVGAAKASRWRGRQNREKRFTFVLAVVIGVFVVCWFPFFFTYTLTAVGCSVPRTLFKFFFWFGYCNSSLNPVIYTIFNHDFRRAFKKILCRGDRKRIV
Sequence of wild type human alpha2A adrenergic receptor (P08913 whole entry): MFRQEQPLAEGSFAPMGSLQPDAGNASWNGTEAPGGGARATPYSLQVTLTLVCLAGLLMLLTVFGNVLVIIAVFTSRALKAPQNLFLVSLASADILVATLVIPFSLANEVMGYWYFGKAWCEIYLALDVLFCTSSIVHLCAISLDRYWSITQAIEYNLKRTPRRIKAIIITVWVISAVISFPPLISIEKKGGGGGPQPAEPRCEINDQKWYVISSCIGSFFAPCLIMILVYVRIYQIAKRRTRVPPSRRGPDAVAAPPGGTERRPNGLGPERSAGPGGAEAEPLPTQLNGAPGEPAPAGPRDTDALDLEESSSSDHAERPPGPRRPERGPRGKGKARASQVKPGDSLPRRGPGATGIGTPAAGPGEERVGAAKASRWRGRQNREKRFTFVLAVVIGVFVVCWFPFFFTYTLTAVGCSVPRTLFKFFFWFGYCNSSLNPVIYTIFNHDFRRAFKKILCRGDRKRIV

Brc1c(NC2=NCCN2)ccc2nccnc12 [UK14304]
yeast cell growth response [1]: dose-dependent growth response
yeast cell growth response [2]: dose-dependent growth response

C[N+](C)(C)CCOC(N)=O [carbachol]
agonist-dependent yeast cell growth [3]: lack of agonist-dependent yeast cell growth
agonist-dependent yeast cell growth (DMAR-M3 MAR IC3Δ): agonist-dependent growth response

CCN(CC)C(=O)N[C@H]1C=C2c3cccc4[nH]cc(c34)C[C@H]2N(C)C1 [lisuride]
antagonist effect on growth inducing effect of serotonin (Ce 5HTR-M3 MAR IC3Δ): blocked

CN1CCN2c3ccccc3Cc3ccccc3C2C1 (stereo not shown) [mianserin]
antagonist effect on growth inducing effect of serotonin (Ce 5HTR-M3 MAR IC3Δ): blocked

NCCc1c[nH]c2ccc(O)cc12 [serotonin]
agonist-dependent yeast cell growth (Ce 5HTR-M3 MAR IC3Δ; yeast cells containing Ce 5HTR-M3 MAR IC3Δ, 18 hours): agonist-dependent growth response
